Source: US20260337153A1, “IONIZABLE AMINE LIPIDS” (Intellia Therapeutics, Inc., priority 2023, published 2026)

Test system: rat TTR
Experiment: Serum TTR level after LNP delivery (Rat Prealbumin (Transthyretin) ELISA)
Type: in vivo, rat (Sprague-Dawley)
Conditions: LNP with PEG2K-DMG
Procedure: Sprague-Dawley female rats, ranging from 6-10 weeks of age were used in each study. Animals were weighed and dosed based on individual body weight measured the morning of dosing. LNPs were dosed via the lateral tail vein in a volume of 2 mL per kilogram of animal body weight. The animals were periodically observed for adverse effects for at least 24 hours post dose.
For studies measuring in vivo editing in liver, Sprague-Dawley female rats were dosed at 0.1 mpk or 0.03 mpk, unless otherwise noted. Animals were euthanized at 6 or 7 days by carbon dioxide asphyxiation and a heart clip or by ex sanguination via cardiac puncture under isoflourane anesthesia. Blood was collected into serum separator tubes. Liver tissue was collected. Genomic DNA was isolated from the liver tissue for editing measurement by Next-Generation Sequencing (NGS).
Blood was collected and the serum was isolated as indicated. The total rat TTR serum levels were determined using a Rat Prealbumin (Transthyretin) ELISA Kit (Aviva Systems Biology, Cat. #OKIA00159). Briefly, sera were serial diluted with kit sample diluent to a final dilution of 10,000-fold. This diluted sample was then added to the ELISA plates and the assay was then carried out according to manufacturer's protocol.
In vivo editing efficiency for materials delivered with formulations including various amine lipid (or ionizable lipid) compounds in Experiments 1 through 14 as described in Tables 3 and 4 was assessed. Editing was measured using G000534 (SEQ ID NO: 5) which targets the rat TTR gene. Lipids described above were assessed for efficacy through in vivo editing experiments. LNPs were formulated at a 1:2 w/w ratio of sgRNA (SEQ ID NO: 5) and Cas9 mRNA (SEQ ID NO: 3). In Experiments 1 through 13, lipid components of the LNP are formulated in a molar ratio of 50% ionizable lipid, 38% cholesterol, 9% DSPC, and 3% PEG2K-DMG. In Experiment 14, lipid components of the LNP are formulated in a molar ratio of 50% ionizable lipid, 38% cholesterol, 9% DSPC, and 3% C13 Ether. The final LNPs used in different in vivo editing experiments were characterized to determine the encapsulation efficiency (% E), polydispersity index (PDI), and average particle size (Z-avg and number mean) according to the analytical methods provided above. The pKa values of each of the following ionizable lipids were also measured to be in the range of about 5.8 to about 7.6.
TSS was used as a vehicle-only negative control. The data are illustrated in FIGS. 1A through 14.

SMILES | % TSS (serum TTR relative to vehicle) (Experiment 2, 0.1 mpk) | Serum TTR (Experiment 2, 0.1 mpk) | % TSS (serum TTR relative to vehicle) (Experiment 5, 0.1 mpk) | Serum TTR (Experiment 5, 0.1 mpk) | % TSS (serum TTR relative to vehicle) (Experiment 1, 0.1 mpk) | Serum TTR (Experiment 1, 0.1 mpk)
CCCCCCCCC(CCCCCCCC)OC(=O)CCCC(=O)OCC(COC(=O)CCCC(=O)OC(CCCCCCCC)CCCCCCCC)COC(=O)OCCCN(CC)CC [Compound 2, O,O′-(2-((((3-(diethylamino)propoxy)carbonyl)oxy)methyl)propane-1,3-diyl) di(heptadecan-9-yl) diglutarate] | 17% | 238.5 µg/mL | – | – | – | –
CCCCCCCCC(CCCCCCCC)OC(=O)CCCCCC(=O)OCC(COC(=O)CCCCCC(=O)OC(CCCCCCCC)CCCCCCCC)COC(=O)OCCCN(CC)CC [Compound 3, O′1,O1-(2-((((3-(diethylamino)propoxy)carbonyl)oxy)methyl)propane-1,3-diyl) 7,7′-di(heptadecan-9-yl) di(heptanedioate)] | 30% | 414.5 µg/mL | – | – | – | –
CCCCC/C=C\C/C=C\CCCCCCCC(=O)OCC(COC(=O)CCCCCC(=O)OCC(CCCC)CCCCCC)COC(=O)OCCCN(CC)CC (stereo not drawn) [Compound 4, 1-(2-butyloctyl) 7-(3-(((3-(diethylamino)propoxy)carbonyl)oxy)-2-((((9Z,12Z)-octadeca-9,12-dienoyl)oxy)methyl)propyl) heptanedioate] | 46% | 647.4 µg/mL | – | – | – | –
CCCCCCC(CCCC)COC(=O)CCCCCC(=O)OCC(COC(=O)CCCCCC(=O)OCC(CCCC)CCCCCC)COC(=O)OCCCN(CC)CC (stereo not drawn) [Compound 5, 7,7′-bis(2-butyloctyl) O′1,O1-(2-((((3-(diethylamino)propoxy)carbonyl)oxy)methyl)propane-1,3-diyl) di(heptanedioate)] | 25% | 346.5 µg/mL | – | – | – | –
CCCCC/C=C\C/C=C\CCCCCCCC(=O)OCC(CCCCCCCCC(=O)OC(CCCCCCCC)CCCCCCCCC)COC(=O)CCC(CCCCCCCC)OC(=O)NCCN(C)CC (stereo not drawn) [Compound 24, 3-methyl-15-(9-(octadecan-9-yloxy)-9-oxononyl)-9-octyl-7,12-dioxo-8,13-dioxa-3,6-diazahexadecan-16-yl (9Z,12Z)-octadeca-9,12-dienoate] | – | – | 95% | 1352.4 µg/mL | – | –
CCCCC/C=C\C/C=C\CCCCCCCC(=O)OCC(CCCCCCCCC(=O)OC(CCCCCCCC)CCCCCCCCC)COC(=O)CCC(CCCCCCCC)OC(=O)NCCN1CCCC1 (stereo not drawn) [Compound 25, 11-(octadecan-9-yloxy)-11-oxo-2-(((4-(((2-(pyrrolidin-1-yl)ethyl)carbamoyl)oxy)dodecanoyl)oxy)methyl)undecyl (9Z,12Z)-octadeca-9,12-dienoate] | – | – | 70% | 998.3 µg/mL | – | –
CCCCC/C=C\C/C=C\CCCCCCCC(=O)OCC(CCCCCCCCC(=O)OC(CCCCCCCC)CCCCCCCCC)COC(=O)CCC(CCCC)OC(=O)NCCN(C)CC (stereo not drawn) [Compound 26, 9-butyl-3-methyl-15-(9-(octadecan-9-yloxy)-9-oxononyl)-7,12-dioxo-8,13-dioxa-3,6-diazahexadecan-16-yl (9Z,12Z)-octadeca-9,12-dienoate] | – | – | 35% | 502.9 µg/mL | – | –
CCCCC/C=C\C/C=C\CCCCCCCC(=O)OCC(CCCCCCCCC(=O)OC(CCCCCCCC)CCCCCCCCC)COC(=O)CCC(CCCC)OC(=O)NCCN1CCCC1 (stereo not drawn) [Compound 27, 11-(octadecan-9-yloxy)-11-oxo-2-(((4-(((2-(pyrrolidin-1-yl)ethyl)carbamoyl)oxy)octanoyl)oxy)methyl)undecyl (9Z,12Z)-octadeca-9,12-dienoate] | – | – | 21% | 294.3 µg/mL | – | –
CCCCC/C=C\C/C=C\CCCCCCCC(=O)OCC(COC(=O)CCC(OCCCCCCCC)OCCCCCCCC)COC(=O)OCCCN(CC)CC (stereo not drawn) [Compound 53] | 24% | 341.9 µg/mL | 44% | 624.1 µg/mL | 48% | 519.9 µg/mL
CCCCC/C=C\C/C=C\CCCCCCCC(=O)OCC(COC(=O)CCC(OCCCCCCCC)OCCCCCCCC)COC(=O)NCCN(CC)CC (stereo not drawn) [Compound 54] | – | – | – | – | 48% | 512.9 µg/mL
CCCCC/C=C\C/C=C\CCCCCCCC(=O)OCC(COC(=O)CCCC(=O)OC(CCCCCCCC)CCCCCCCC)COC(=O)OCCCN(CC)CC (stereo not drawn) [Compound 56] | 28% | 390.1 µg/mL | – | – | – | –
CCCCC/C=C\C/C=C\CCCCCCCC(=O)OCC(COC(=O)CCCCCC(=O)OC(CCCCCCCC)CCCCCCCC)COC(=O)OCCCN(CC)CC (stereo not drawn) [Compound 57] | 30% | 412.3 µg/mL | – | – | – | –
CCCCC/C=C\C/C=C\CCCCCCCC(=O)OCC(COC(=O)CCCC(=O)OC(CCCCCCCC)CCCCCCCC)COC(=O)NCCN(CC)CC (stereo not drawn) [Compound 58] | 14% | 198.8 µg/mL | – | – | 38% | 406.3 µg/mL
CCCCC/C=C\C/C=C\CCCCCCCC(=O)OCC(COC(=O)CCCCCC(=O)OC(CCCCCCCC)CCCCCCCC)COC(=O)NCCN(CC)CC (stereo not drawn) [Compound 59] | 20% | 276.6 µg/mL | – | – | 50% | 533.0 µg/mL
